Data on five molecules can be found in patent US20110086836A1, “Substituted Phenylpiperidine Derivatives As Melanocortin-4 Receptor Modulators” (Santhera Pharmaceuticals (Schweiz) AG, priority 2006, published 2011).

For assay [1], the target named is T1, human melanocortin-4 receptor (hMC-4R) (Homo sapiens, UniProt P32245).
T1 construct: expressed in transfected cells; host or cells: HEK293 (membrane preparations)
As to the kind of experiment: hMC-4R binding assay (fluorescence polarization, competition with fluorescence labeled NDP-alpha-MSH). As to conditions: HEK293 cell membrane preparations expressing human melanocortin receptors. As for the experimental part:
The plate is incubated for 5 h at room temperature.
The degree of fluorescence polarization is determined with a fluorescence polarization microplate reader.

For assay [2], the target named is T1, human melanocortin-4 receptor (hMC-4R). The assay can be described thus: hMC-4R functional assay (membrane based cAMP fluorescence polarization). It is filed as biochemical. Details: concentration or dose not given beside the values. As to conditions: cAMP produced compared to stimulation with NDP-alpha-MSH. The protocol: Agonistic activity of human melanocortin receptors is determined in a homogeneous membrane based assay.
Membrane preparations from HEK293 cells expressing the human melanocortin receptors are added. After a short preincubation period, an appropriate amount of ATP, GTP and the cAMP antibody is added and the plate is further incubated before the fluorescence labeled cAMP conjugate is dispensed. The plate is incubated for 2 h at 4° C. before it is read on a fluorescence polarization microplate reader.

T1 sequence (P32245 whole entry): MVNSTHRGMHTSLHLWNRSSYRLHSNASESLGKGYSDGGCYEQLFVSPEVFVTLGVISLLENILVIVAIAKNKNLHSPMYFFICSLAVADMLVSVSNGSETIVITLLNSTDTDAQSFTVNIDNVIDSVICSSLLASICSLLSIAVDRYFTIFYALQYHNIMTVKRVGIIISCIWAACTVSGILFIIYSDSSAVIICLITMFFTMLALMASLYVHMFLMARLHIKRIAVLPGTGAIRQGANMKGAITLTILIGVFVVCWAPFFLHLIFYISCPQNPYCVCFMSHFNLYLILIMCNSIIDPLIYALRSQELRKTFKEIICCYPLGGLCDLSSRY

As to `O=C(N[C@H](Cc1ccc(Cl)cc1Cl)C(=O)N1CCC(c2ccccc2OCCN2CCCC2)CC1)N1CCCC1` [Example 2], the IC50 in assay [1] stood at 3.7 nM. In addition, the “% activation functional assay” value in assay [2] is 0%.

For `O=C(N[C@H](Cc1ccc(Cl)cc1Cl)C(=O)N1CCC(c2ccccc2CCN2CCC(F)CC2)CC1)N1CCCC1` [Example 36], in assay [1], the IC50 stood at 9.6 nM. Moreover, the “% activation functional assay” value in assay [2] was found to be 0%.

In assay [1], `O=C(N[C@H](Cc1ccc(Cl)cc1Cl)C(=O)N1CCC(c2ccccc2CCCN2CCCC2)CC1)N1CCOCC1` [Example 95] displayed a concentration for half-maximal inhibition (IC50) of 5.3 nM. For the same molecule, the “% activation functional assay” value in assay [2] is listed as 0%.

In assay [1], `O=C(N[C@H](Cc1ccc(Cl)cc1Cl)C(=O)N1CCC(c2ccccc2OCCN2CCCC2)CC1)N1CCC(F)(F)C1` [Example 110] displayed an IC50 of 4.4 nM. Moreover, in assay [2], the “% activation functional assay” value was found to be 0%.

With `CN(C)[C@H]1CCN(C(=O)N[C@H](Cc2ccc(Cl)cc2Cl)C(=O)N2CCC(c3ccccc3OCCN3CCCC3)CC2)C1` [Example 113], the concentration for half-maximal inhibition (IC50) in assay [1] worked out at 3 nM. Besides, the “% activation functional assay” value in assay [2] came to 0%.
